Measured values reported in PubChem BioAssay AID248 (DTP/NCI, 2004).
Several values for one entry are separate records, joined by “and”; a condition that tells them apart may be missing. Identical values can stand only once. Inconclusive results and toxic doses are left out. No stated cut-off is given here; in the data, active means T/C of 150% or more; inactive means T/C below 125%.

Test system: L1210 leukemia ip in BDF1 mice, survival T/C
Assay: NCI In Vivo Anticancer Drug Screen. Data for tumor model L1210 Leukemia (intraperitoneal) in B6D2F1 (BDF1) mice
Details: endpoint: mean survival time, higher = longer survival
Method in brief: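 Antitumor effect is assessed in tumor-bearing animals. Survival in the compound arm is compared with a vehicle-dosed control arm and expressed as their quotient.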

[1] = dose: 50.0 mg/kg/injection, schedule: Q01DX009 (ip), vehicle: saline with Tween-80
[2] = dose: 100.0 mg/kg/injection, schedule: Q01DX009 (ip), vehicle: saline with Tween-80
[3] = dose: 200.0 mg/kg/injection, schedule: Q01DX009 (ip), vehicle: saline with Tween-80
[4] = dose: 100.0 mg/kg/injection, schedule: Q01DX009 (ip), vehicle: Klucel (hydroxypropylcellulose) (HPC)
[5] = dose: 100.0 mg/kg/injection, schedule: Q04DX003 (ip), vehicle: Klucel (hydroxypropylcellulose) (HPC)
[6] = dose: 200.0 mg/kg/injection, schedule: Q01DX009 (ip), vehicle: Klucel (hydroxypropylcellulose) (HPC)
[7] = dose: 200.0 mg/kg/injection, schedule: Q04DX003 (ip), vehicle: Klucel (hydroxypropylcellulose) (HPC)
[8] = dose: 400.0 mg/kg/injection, schedule: Q01DX009 (ip), vehicle: Klucel (hydroxypropylcellulose) (HPC)
[9] = dose: 400.0 mg/kg/injection, schedule: Q04DX003 (ip), vehicle: Klucel (hydroxypropylcellulose) (HPC)
[10] = dose: 25.0 mg/kg/injection, schedule: Q01DX009 (ip), vehicle: Klucel (hydroxypropylcellulose) (HPC)
[11] = dose: 25.0 mg/kg/injection, schedule: Q04DX003 (ip), vehicle: Klucel (hydroxypropylcellulose) (HPC)
[12] = dose: 50.0 mg/kg/injection, schedule: Q01DX009 (ip), vehicle: Klucel (hydroxypropylcellulose) (HPC)
[13] = dose: 50.0 mg/kg/injection, schedule: Q04DX003 (ip), vehicle: Klucel (hydroxypropylcellulose) (HPC)
[14] = dose: 100.0 mg/kg/injection, schedule: Q01DX001 (ip), vehicle: carboxymethylcellulose (CMC)
[15] = dose: 200.0 mg/kg/injection, schedule: Q01DX001 (ip), vehicle: carboxymethylcellulose (CMC)
[16] = dose: 400.0 mg/kg/injection, schedule: Q01DX001 (ip), vehicle: carboxymethylcellulose (CMC)
[17] = dose: 100.0 mg/kg/injection, schedule: Q01DX001 (ip), vehicle: Klucel (hydroxypropylcellulose) (HPC)
[18] = dose: 200.0 mg/kg/injection, schedule: Q01DX001 (ip), vehicle: Klucel (hydroxypropylcellulose) (HPC)
[19] = dose: 50.0 mg/kg/injection, schedule: Q01DX001 (ip), vehicle: carboxymethylcellulose (CMC)
[20] = dose: 400.0 mg/kg/injection, schedule: Q01DX009 (ip), vehicle: saline with Tween-80

Measured: T/C

C1=C[P+](c2ccccc2)(c2ccccc2)CC[P+]1(c1ccccc1)c1ccccc1
inactive: dose: 75.0 mg/kg/injection, schedule: Q01DX001 (ip), vehicle: other 98 % of control | dose: 150.0 mg/kg/injection, schedule: Q01DX001 (ip), vehicle: other 95 % of control

CS(=O)(=O)OCCC(COS(C)(=O)=O)S(=O)(=O)CCCOc1ccccc1-c1ccccc1 (configuration not stated)
inactive: [1] 94 % of control | [2] 94 % of control | [3] 94 % of control

O=[N+]([O-])c1ccc(/C=C/c2ccccc2Br)cc1
inactive: [4] 106 % of control | [5] 100 % of control | [6] 97 % of control | [7] 98 % of control | [8] 97 % of control | [9] 98 % of control

O=C1c2cc3c(cc2CCC1N1CCOCC1)CCCC3 (configuration not stated)
inactive: dose: 100.0 mg/kg/injection, schedule: Q04DX003 (ip), vehicle: saline with Tween-80 111 % of control | dose: 200.0 mg/kg/injection, schedule: Q04DX003 (ip), vehicle: saline with Tween-80 114 % of control

CN(C)/N=N\c1nc[nH]c1C(=O)NN
inactive: dose: 50.0 mg/kg/injection, schedule: Q01DX001 (ip), vehicle: saline 107 % of control | dose: 100.0 mg/kg/injection, schedule: Q01DX001 (ip), vehicle: saline 101 % of control | dose: 200.0 mg/kg/injection, schedule: Q01DX001 (ip), vehicle: saline 107 % of control | dose: 400.0 mg/kg/injection, schedule: Q01DX001 (ip), vehicle: saline 110 % of control

Cc1ccccc1NC(=S)N(C)C
inactive: [10] 103 % of control | [11] 98 % of control | [12] 104 % of control | [13] 91 % of control | [4] 103 % of control | [5] 95 % of control and 103 % of control

CCOC(=O)c1ccc(NC(=O)Oc2ccccc2C(=O)OCc2ccccc2)cc1
inactive: [4] 98 % of control | [6] 95 % of control | [8] 96 % of control

CCOC(=O)CCC(I)C(=O)OCC (configuration not stated)
inactive: dose: 3.75 mg/kg/injection, schedule: Q01DX010 (ip), vehicle: saline 98 % of control | dose: 15.0 mg/kg/injection, schedule: Q01DX010 (ip), vehicle: saline 90 % of control

CCCCC/C(=C\c1ccccc1)C1OCC(CCl)O1 (configuration not stated)
inactive: dose: 222.0 mg/kg/injection, schedule: Q01DX Z (ip), vehicle: saline 100 % of control | dose: 333.0 mg/kg/injection, schedule: Q01DX Z (ip), vehicle: saline 100 % of control | dose: 500.0 mg/kg/injection, schedule: Q01DX Z (ip), vehicle: saline 109 % of control

O=[N+]([O-])c1ccc(SCc2ccc(Br)cc2)c([N+](=O)[O-])c1
inactive: [14] 98 % of control | [15] 104 % of control | [16] 95 % of control

O=C1OCCN1C(=O)c1ccc([N+](=O)[O-])cc1
inactive: [17] 97 % of control | [4] 89 % of control | [5] 97 % of control | [18] 94 % of control | [6] 94 % of control | [7] 98 % of control | dose: 400.0 mg/kg/injection, schedule: Q01DX001 (ip), vehicle: Klucel (hydroxypropylcellulose) (HPC) 97 % of control | [8] 88 % of control | [9] 98 % of control

CC(=O)OCC(C)(C)COS(=O)(=O)c1ccc(Br)cc1
inactive: [1] 100 % of control | [2] 89 % of control | [3] 89 % of control

O=C1NC2(C=CC(Br)CC2)C(=O)C12CCCCC2 (configuration not stated) (tested in a mixture with another compound)
inactive: dose: 150.0 mg/kg/injection, schedule: Q01DX001 (ip), vehicle: saline 94 % of control

N#Cc1cccc(C(=O)Cl)c1
inactive: dose: 25.0 mg/kg/injection, schedule: Q01DX009 (ip), vehicle: carboxymethylcellulose (CMC) 95 % of control and 96 % of control | dose: 50.0 mg/kg/injection, schedule: Q01DX009 (ip), vehicle: carboxymethylcellulose (CMC) 100 % of control and 89 % of control | [14] 92 % of control | dose: 100.0 mg/kg/injection, schedule: Q01DX009 (ip), vehicle: carboxymethylcellulose (CMC) 92 % of control and 95 % of control and 96 % of control | dose: 100.0 mg/kg/injection, schedule: Q04DX002 (ip), vehicle: carboxymethylcellulose (CMC) 95 % of control and 89 % of control | dose: 100.0 mg/kg/injection, schedule: Q04DX003 (ip), vehicle: carboxymethylcellulose (CMC) 96 % of control and 100 % of control | [15] 92 % of control and 98 % of control | dose: 200.0 mg/kg/injection, schedule: Q04DX002 (ip), vehicle: carboxymethylcellulose (CMC) 95 % of control | dose: 200.0 mg/kg/injection, schedule: Q04DX003 (ip), vehicle: carboxymethylcellulose (CMC) 96 % of control and 100 % of control | dose: 400.0 mg/kg/injection, schedule: Q04DX003 (ip), vehicle: carboxymethylcellulose (CMC) 91 % of control

CCCCCCCC(=O)O[C@H]1[C@H]2[C@@H](CC1(C)C)C(=O)[C@]13O[C@H]1C(=O)[C@]1(CO1)[C@]23C
inactive: dose: 5.0 mg/kg/injection, schedule: Q01DX009 (ip), vehicle: saline with Tween-80 108 % of control | dose: 10.0 mg/kg/injection, schedule: Q01DX009 (ip), vehicle: saline with Tween-80 119 % of control | dose: 10.0 mg/kg/injection, schedule: Q04DX003 (ip), vehicle: saline with Tween-80 97 % of control | dose: 20.0 mg/kg/injection, schedule: Q01DX009 (ip), vehicle: saline with Tween-80 86 % of control | dose: 20.0 mg/kg/injection, schedule: Q04DX003 (ip), vehicle: saline with Tween-80 99 % of control

CCOC(=O)CC(=O)C1CCCCC1
inactive: [19] 95 % of control | [14] 95 % of control | [15] 97 % of control | [16] 95 % of control

C=C1C[C@]23C[C@H](O)[C@]4(O)[C@@]5(C)C[C@H](O)C[C@]46C(C2[C@@H]1[C@@H](OC(=O)/C(C)=C/C)[C@@H](OC(=O)/C(C)=C/C)[C@H]36)N(C)C5 (some centres not stated)
inactive: [19] 95 % of control | [14] 106 % of control | [15] 106 % of control | [16] 114 % of control

Cc1nn(C)c(Cl)c1[N+](=O)[O-]
inactive: [4] 102 % of control | dose: 100.0 mg/kg/injection, schedule: Q04DX002 (ip), vehicle: Klucel (hydroxypropylcellulose) (HPC) 102 % of control | [6] 97 % of control | dose: 200.0 mg/kg/injection, schedule: Q04DX002 (ip), vehicle: Klucel (hydroxypropylcellulose) (HPC) 91 % of control | [8] 100 % of control | dose: 400.0 mg/kg/injection, schedule: Q04DX002 (ip), vehicle: Klucel (hydroxypropylcellulose) (HPC) 94 % of control

NC1=NC(=O)C(c2ccccc2)O1 (configuration not stated)
inactive: [10] 88 % of control | [11] 92 % of control | [12] 94 % of control | [13] 95 % of control | [4] 91 % of control | [5] 103 % of control | [6] 102 % of control | [7] 103 % of control | [9] 89 % of control

O=C1CCc2c1cc(O)c1ccc(S(=O)(=O)O)cc21
inactive: dose: 5.0 mg/kg/injection, schedule: Q01DX001 (ip), vehicle: saline 104 % of control | dose: 10.0 mg/kg/injection, schedule: Q01DX001 (ip), vehicle: saline 106 % of control | dose: 20.0 mg/kg/injection, schedule: Q01DX001 (ip), vehicle: saline 104 % of control | dose: 40.0 mg/kg/injection, schedule: Q01DX001 (ip), vehicle: saline 102 % of control

Fc1ccc(C(c2ccc(F)cc2)C(Cl)Cl)cc1
inactive: [2] 95 % of control | [3] 97 % of control | [20] 93 % of control

Cc1cccc(C)c1NC(=O)NCCCl
inactive: dose: 50.0 mg/kg/injection, schedule: Q01DX001 (ip), vehicle: Klucel (hydroxypropylcellulose) (HPC) 97 % of control | [17] 108 % of control | dose: 100.0 mg/kg/injection, schedule: Q04DX003 (ip), vehicle: saline 105 % of control | [18] 101 % of control | dose: 200.0 mg/kg/injection, schedule: Q04DX003 (ip), vehicle: saline 97 % of control | dose: 400.0 mg/kg/injection, schedule: Q04DX003 (ip), vehicle: saline 100 % of control

O=C(O)CC1(CC(=O)O)CCCCC1
inactive: [2] 90 % of control | [3] 95 % of control | [20] 92 % of control

CCN(c1ccccc1C)S(=O)(=O)c1ccccc1
inactive: [4] 109 % of control | [5] 103 % of control | [6] 101 % of control | [7] 93 % of control | [8] 87 % of control | [9] 95 % of control
